# According to patent US12050220B2, “Cell labeling agent and cell labeling kit” (University of Miyazaki, priority 2018, dated 2024):
# Experiments:
# HeLa cells = assay: Fluorescence imaging of cells (metabolic labeling, FAM-tetrazine staining, confocal microscopy); format: cell-based
# Procedure: BCN-ManNAc was added to the medium containing 1×10^5 HeLa cells and cultured for 72 hours. The medium used was DMEM (Dulbecco's Modified Eagle's Medium) containing 10% FBS (fetal bovine serum). The final concentrations of BCN-ManNAc added to the medium were 0, 2.5, 5, 10, 20, and 25 μM. After incubation, the medium was removed and the cells were washed three times with PBS. 3.7% paraformaldehyde was added and the cells were fixed for 20 min at room temperature. A final concentration of 1 μM FAM-tetrazine was added to the plate containing the fixed cells, and the cells were incubated for 20 min at room temperature. Fluorescence measurement was performed using a confocal microscopy (Leica TCS SP8, Leica Microsystems).
# [1] = Confirmation of the reactivity of BCN-ManNAc in vitro (click reaction with FAM-tetrazine, fluorescence spectra); settings: BCN-ManNAc 200 μM, FAM-tetrazine 1 μM, PBS; time-varying measurement up to 4000 s
# Procedure: 2.0 mg of BCN-ManNAc was dissolved in 190 μL of DMSO and 20 mM of BCN-ManNAc solution was prepared. 1.0 mg of FAM-tetrazine was dissolved in 180 μL of DMSO and […] of FAM-tetrazine solution was prepared. 89 μL of phosphate-buffered saline (PBS) was prepared in a microtube, to which 1 μL of BCN-ManNAc solution and 10 μL of FAM-tetrazine solution were added, and the mixture was stirred well in a vortex mixer. The final concentrations of BCN-ManNAc and FAM-tetrazine in the mixture are 200 μM and 1 μM, respectively.
# 100 μL of the mixture was reacted at 37° C. for 1.5 hours. As a control, 100 μL of the sample of BCN-ManNAc 200 μM only was prepared. The fluorescence spectra of the mixture and control were measured using a spectrophotometer (JASCO FP-8200) (λex=492 nm, λem=517 nm). To evaluate the time dependence of the reaction of BCN-ManNAc and FAM-tetrazine, the fluorescence spectra of 100 μL of the mixture were measured up to 4000 s in the time-varying measurement mode.
substance,measurement,setting,value
acetylated BCN-modified mannosamine [BCN-ManNAc],fluorescence of FAM in cells,"HeLa cells; HeLa cells cultured 72 hours with 0, 2.5, 5, 10, 20, 25 μM, fixed, 1 μM FAM-tetrazine 20 min",increased in a concentration-dependent manner
same,fluorescence images of cells exposed to FAM-tetrazine (+),"HeLa cells; HeLa cells cultured in medium containing 25 μM, with FAM-tetrazine (+) vs without (−)",observed by fluorescence
same,time at which fluorescence intensity almost reached its maximum,[1],about 1800 s
